According to publication PMC7494974, “Olfactory Reception of Host Alarm Pheromone Component by the Odorant-Binding Proteins in the Samurai Wasp, Trissolcus japonicus (Hymenoptera: Scelionidae)” (Frontiers in Physiology, 2020):

Key:
Assay type in all cases: binding
[1] = target: T1, TjapOBP2 (Trissolcus japonicus, UniProt A0A7G6J4J8); assay: fluorescence titration, Scatchard; conditions: 50 mM Tris-HCl pH 7.4; excitation 337 nm; fluorescent probe
T1 construct: gene OBP2; mature, signal peptide removed; E. coli BL21; His-tag cleaved; ~15 kDa on SDS-PAGE; classical OBP; by primers starts KRPDFIDDDM and ends QCIINNCPEMWFIV
T1 sequence (A0A7G6J4J8 23-142): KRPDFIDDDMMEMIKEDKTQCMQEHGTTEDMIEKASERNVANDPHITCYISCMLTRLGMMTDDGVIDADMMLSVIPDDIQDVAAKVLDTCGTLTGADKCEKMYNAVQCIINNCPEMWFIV

[2] = target: T2, TjapOBP3 (Trissolcus japonicus, UniProt A0A7G6J4J9); assay: fluorescence titration, Scatchard; conditions: 50 mM Tris-HCl pH 7.4; excitation 337 nm; fluorescent probe
T2 construct: gene OBP3; mature, signal peptide removed; E. coli BL21; His-tag cleaved; ~15 kDa on SDS-PAGE; classical OBP; by primers starts KLSVPQLK and ends CWYHKNPEMYIFP
T2 sequence (A0A7G6J4J9 22-142): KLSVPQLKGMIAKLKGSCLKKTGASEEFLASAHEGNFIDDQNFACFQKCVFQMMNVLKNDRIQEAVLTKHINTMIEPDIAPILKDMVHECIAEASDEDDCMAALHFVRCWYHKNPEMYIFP

[3] = target: T2, TjapOBP3; assay: competitive fluorescence displacement of 1-NPN; conditions: 50 mM Tris-HCl pH 7.4; excitation 337 nm; competitive with 1-NPN
[4] = target: T1, TjapOBP2; assay: competitive fluorescence displacement of 1-NPN

SMILES	K1-NPN [1]	K1-NPN [2]	competitive fluorescence displacement of 1-NPN [3]	IC50 [4] [µM]
c1ccc(Nc2cccc3ccccc23)cc1 [1-NPN]	The fluorescent probe 1-NPN was used to bind the selected OBPs	The fluorescent probe 1-NPN was used to bind the selected OBPs	–	–
CCCCCCC/C=C/C=O [(E)-2-decenal]	–	–	TjapOBP1 and TjapOBP3 had a weak ability to bind (E)-2-decenal	7.92 ± 1.03
